Key:
[1] = tested on: expanded cord blood CD34+ cells, megakaryocyte lineage (CD41, CD42b); experiment: Megakaryocyte Differentiation Culture after Expansion Culture (Example 38); assay type: cell-based, human
Method: At days 21 and 63, CD34+ enriched cells were placed into Differentiation Cultures, described below.
Differentiation cultures were initiated using Erythroid, Myeloid (granulocyte and monocyte), and Megakaryocyte HemaTox kits from STEMCELL technologies following the manufacturer's instructions. In brief, lineage media was prepared by adding cytokine cocktails for erythrocyte (SCF, IL-3, and EPO), myeloid (i.e. mixed granulocyte/monocyte, SCF, TPO, G-CSF, and GM-CSF) or megakaryocyte (SCF, IL-6, IL-9 and TPO) lineage differentiation to their respective kits' media, then adding approximately 30-100 CD34+ cells for erythroid or myeloid cultures, or 300-1000 CD34+ cells for megakaryoid cultures. Exact cell numbers plated were quantified for later analysis. All incubations for Differentiation Culture took place at 3% oxygen (controlled by nitrogen) and 5% CO2.
Following seven days of erythroid or myeloid cultures, or ten days for megakaryoid cultures, differentiated cell output was quantified using flow cytometry. Erythroid output was quantified using anti-CD71 and anti-CD235a antibodies, and megakaryocyte lineage output was quantified using anti-CD41 and anti-CD42b antibodies. Granulocyte and monocyte lineage outputs were assessed in tandem, using CD14 and CD15 antibodies, with granulocyte lineage cells being CD15+/CD14−, and monocyte lineage cells being CD14+/CD15−.
A number of quantities were calculated to assess the effect of expansion of CD34+ cells in the +Formula I Condition on the output of lineage differentiated cells. “Per-Assayed-CD34+ Cell Output” describes the output of differentiated cells per CD34+ cell placed into Differentiation Culture, and is calculated by dividing the total number of lineage-positive cells by the input CD34+ cell number quantified at Differentiation Culture initiation at day 1, 21, or 63. […]

[2] = tested on: CD34+ cells from cord blood; experiment: HSC Expansion Culture, 14 and 21 days (Example 41); assay type: cell-based, human
Method: CD34+ cells from cord blood were purchased from STEMCELL Technologies.
Primary human CD34+ cells were isolated by the supplier from cord blood samples using positive immunomagnetic separation techniques. Cells from two separate samples of cord blood were thawed, gradually brought to room temperature, then washed.
For both samples, cells were primed with an overnight culture in StemSpan with 100 ng/ml each of FLT3L, TPO, SCF, and IL-6. Eighteen hours later (day 1), cells were counted and immunophenotyped (flow cytometry on an Invitrogen Attune N×T cytometer).
The remainder of cells from both samples were placed into “HSC Expansion Culture” for either 14 days (“14-day expansion”) or 21 days (“21-day expansion”). Numbers of cells placed into HSC Expansion Culture were quantified for “Fold Expansion” calculations described below. […]
During Expansion Culture, portions of cells were passaged to one or more larger flasks (75 cm^2 or 225 cm^2) if density of cells was greater than ≥1e5 cells/ml. […] Numbers of cells seeded were recorded for “Fold Expansion” calculations, described below.
Following 21 days in Expansion Culture, a sample was taken from the 21-day expansion flask for counting and analysis of phenotypes (flow cytometry on an Invitrogen Attune N×T cytometer). […] CD34 purity was verified by flow cytometry and counts were recorded for calculation of Per-Assayed-CD34+ Cell Output, described below. […]

## CC(C)(C)C(=O)Nc1ccc2c(c1)C(O)c1ccccc1-2 (centres unmarked) [Compound 1.010]
[1]; +Formula I expansion to day 21, then 10 days differentiation
  fold increase of per-expanded-day-1-CD34+ cell output, total megakaryocyte lineage, over uncultured cells: 18 fold
[1]; +Formula I expansion to day 63, then 10 days differentiation
  fold increase of per-expanded-day-1-CD34+ cell output, total megakaryocyte lineage, over uncultured cells: 3,400 fold
[1]; Formula I-expanded, either 21 or 63 days of prior Expansion Cell Culture, Megakaryocyte Differentiation Culture
  CD42b+ cells of CD41+ cells: approximately 50%
[2]; +Formula I Condition (Compound 1.010 8 μM), 14 days
  fold expansion of CD34+ cells: 35 fold
[2]; +Formula I Condition, 21-day expansion
  fold expansion of CD34+ cells: 245 fold
